Laboratory results taken from ChEMBL document CHEMBL1133878, “Selectivity enhancement induced by substitution of non-natural analogues of arginine and lysine in arginine-based thrombin inhibitors” (Bioorg Med Chem Lett, 2001).

Key:
Prothrombin = Prothrombin (Homo sapiens, UniProt P00734); test: Binding affinity determined against thrombin by Dixon method
[1] = target: Thrombin & trypsin (Homo sapiens) (UniProt P00734+P07477+P07478+P35030); test: Selectivity ratio (trypsin/thrombin) was calculated; assay type: protein assay
Serine protease 1 = target: T1, Serine protease 1 (Bos taurus, UniProt P00760); test: Binding affinity determined against trypsin by Dixon method
T1 sequence (P00760 whole entry): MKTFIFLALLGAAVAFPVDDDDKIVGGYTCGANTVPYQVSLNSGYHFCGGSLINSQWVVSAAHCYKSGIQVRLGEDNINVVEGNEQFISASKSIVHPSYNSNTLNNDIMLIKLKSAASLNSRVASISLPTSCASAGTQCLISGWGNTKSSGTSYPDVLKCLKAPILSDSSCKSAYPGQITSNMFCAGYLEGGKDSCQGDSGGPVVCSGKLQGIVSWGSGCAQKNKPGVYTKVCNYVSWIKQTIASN

SMILES	Ki (Prothrombin) [µM]	Selectivity ratio [1]	Ki (Serine protease 1) [µM]
CC/N=C(/N)NCCCC(NS(=O)(=O)c1cccc2c(N(C)C)cccc12)C(=O)N1CCCCC1 (stereo unspecified)	1.89	178	337
C/N=C(/N)NCCCC(NS(=O)(=O)c1cccc2c(N(C)C)cccc12)C(=O)N1CCCCC1 (stereo unspecified)	0.958	962	922
CN(C)c1cccc2c(S(=O)(=O)NC(CCCN3CCN=C3N)C(=O)N3CCCCC3)cccc12 (stereo unspecified)	0.53	525	278
CNC(C)CCCCC(NS(=O)(=O)c1cccc2c(N(C)C)cccc12)C(=O)N1CCCCC1 (stereo unspecified)	> 10		
CN(C)c1cccc2c(S(=O)(=O)NC(CCCNC3=NCCCN3)C(=O)N3CCCCC3)cccc12 (stereo unspecified)	> 10		
CN(C)c1cccc2c(S(=O)(=O)NC(CCCN=C(N)N)C(=O)N3CCCCC3)cccc12 (stereo unspecified)	0.083	28.2	2.34
CN(C)c1cccc2c(S(=O)(=O)NC(CCCNC3=NCCN3)C(=O)N3CCCCC3)cccc12 (stereo unspecified)		29.4	116
